Laboratory results published in US20230172951A1, “METHODS OF USING BILE ACIDS TO TREAT VIRAL INFECTIONS” (HOFFMAN TECHNOLOGIES LLC, priority 2020, published 2023).

Columns and labels:
Vero E6 cells = assay: Cytotoxicity / cell growth observed in Vero E6 cells during the neutralization assay; settings: for Cell growth: 1.25 mg/mL, also seen in corresponding DMSO controls (1.25%), attributed to DMSO
[1] = system: SARS-CoV-2 (USA-WA1/2020 strain); assay: SARS-CoV-2 neutralization assay in Vero E6 cells, cytopathic effect (CPE) read-out; type: cell-based; settings: for Inhibition of SARS-CoV-2 infection of Vero cells / Day 2 CPE / Day 4 CPE: 1.25 mg/mL; for Inhibition of SARS-CoV-2 infection of Vero cells: dosed simultaneously with viral addition to cells; for EC50 (inhibition of SARS-CoV-2 CPE): Vero E6 cells, calculated by the Quest Graph EC50 Calculator (AAT Bioquest); for Day 2 CPE / Day 4 CPE: five replicate wells; for Day 2 CPE: Day 2 post-infection; for Day 4 CPE: Day 4 post-infection
COVID-19 = assay: Subject presenting with COVID-19 symptoms taking TUDCA capsules (Example 3); type: in vivo; settings: 500 mg capsule, twice per day; after several days
Experimental: A subject presenting with COVID-19 symptoms was instructed to administer one gelatin capsule of TUDCA (500 mg, powder in capsule), twice per day.

SARS-CoV-2 / COVID-19 = type: in vivo; settings: 500 mg capsule, twice per day
[2] = Solubility on dilution of DMSO stock in DMEM/F12; type: physicochemical
Experimental: The Vero E6 cells were plated on 96-well plates the day before the assay and were allowed to grow to ˜60% confluence. All three drugs were reconstituted with DMSO to a concentration of 100 mg/mL. That was further diluted in DMEM/F12 to 5 mg/mL. […] A 1:2 serial dilution series was performed to examine final concentrations of 1.25, 0.625, 0.31, 0.156, 0.078, 0.039, and 0.02 mg/mL. DMSO controls were used to account for DMSO concentrations at 1.25, 0.625, 0.31, 0.156, 0.078, 0.039, and 0.02%. Dilutions were pre-incubated with virus for 60 minutes prior to addition to cells. This was to allow drug to interact with virus prior to virus infection. Additionally, drug and virus were added to Vero cells simultaneously. 45 minutes after virus addition, DMEM/F12+FBS was added to feed the cells. The assay was executed in five replicates for each condition. Test wells received approximately 100 TCID50/well of SARS-CoV-2. Growth of the Vero E6 cells was observed and monitored for cytopathic effects (CPE) associated with successful virus replication. All wells were examined on Day 2 and Day 4 post-infection.

[3] = pre-incubation with virus for 60 minutes
[4] = simultaneous addition of drug and virus

| Structure (SMILES) | Cell growth (Vero E6 cells) | Inhibition of SARS-CoV-2 infection of Vero cells [1] | EC50 (inhibition of SARS-CoV-2 CPE) [1] [µg/mL] | Day 2 CPE [1, 3] | Day 2 CPE [1, 4] | Day 4 CPE [1, 4] | Health outcome of subject with COVID-19 symptoms (COVID-19) | Cytotoxicity in wells (Vero E6 cells; 1.25 and 0.625 mg/mL final concentrations) | Health outcome of member who tested positive for SARS-CoV-2 with COVID-19 symptoms (SARS-CoV-2 / COVID-19; oral, one member) | COVID-19 symptoms in exposed members (prophylaxis) (SARS-CoV-2 / COVID-19; twelve members, repeated exposure to COVID-19 patients over at least 3 months) | Solubility in DMEM/F12 ([2]; 100 mg/mL DMSO stock diluted in DMEM/F12 to 5 mg/mL) | Solubility in DMEM/F12 ([2]; next 1:2 dilution after 5 mg/mL) |
| --- | --- | --- | --- | --- | --- | --- | --- | --- | --- | --- | --- | --- |
| C[C@H](CCC(=O)NCCS(=O)(=O)[O-])[C@H]1CC[C@H]2[C@@H]3[C@@H](O)C[C@@H]4C[C@H](O)CC[C@]4(C)[C@H]3CC[C@]12C.[Na+] [Sodium TUDCA] | Slowed cell growth | inhibit SARS-CoV-2 infection of Vero cells | 980 | no CPE | no CPE | no CPE |  |  |  |  |  |  |
| CC(CCC(=O)NCCS(=O)(=O)O)C1CCC2C3C(O)CC4CC(O)CCC4(C)C3CCC12C (stereo not drawn) [TUDCA acid, tauroursodeoxycholic acid] | Slowed cell growth | inhibit SARS-CoV-2 infection of Vero cells | 980 | no CPE | no CPE | no CPE |  |  |  |  |  |  |
| CC(CCC(=O)NCCS(=O)(=O)O)C1CCC2C3C(O)CC4CC(O)CCC4(C)C3CCC12C (stereo not drawn) [TUDCA, tauroursodeoxycholic acid] |  |  |  |  |  |  | health returned to normal | Cytotoxicity was seen | health returned to normal | None of the other twelve members have presented with COVID-19 symptoms | came out of solution | soluble |
